Results on 15 molecules are retold here after patent US20150299125A1, “PRODRUG BIPYRIDYLAMINOPYRIDINES AS SYK INHIBITORS” (MERCK SHARP & DOHME CORP., priority 2012, published 2015).

As usually defined, the solubility is how much of the substance goes into solution per volume. By IC50 is commonly meant the concentration that inhibits the measured activity by half.

≈ marks a conversion by molar mass, not a printed value. Where two headings read alike, the source gives them in different places.

Data set [1] can be described thus: Solubility in biorelevant fasted state simulated intestinal fluid (FaSSIF). The settings on record: kinetic from dmso stock. Format: physicochemical. As to the method:
Solubility in Biorelevant Fasted State Simulated Intestinal Fluid (FaSSIF):
A 10 mM DMSO stock solution of compound to be tested is used. A 100 μM standard solution is generated by diluting 2.5 μL of the 10 mM stock solution with 247.5 μL of diluent (10% DMSO/10% MeCN/80% MeOH, v/v/v). A solubility solution is generated by diluting 5 μL of the 10 mM stock solution with 245 μL of FaSSIF (maximum solubility approximately 200 μM). […] The equilibrated solubility solution is filtered by centrifugation (3 minutes at 4000 rpm) using a 0.45 µm filter with a polypropylene membrane. The standard solution and the filtered equilibrated solubility solution are analyzed by HPLC/DAD. The solubility value is calculated by the following equation:
Solubility=(Peak area of sample/Peak area of standard)(Standard concentration)

The target of data set [2] is T1, recombinant human GST-Syk (Homo sapiens, UniProt P43405).
T1 construct: purchased Carna Biosciences 08-176
The data set is described as follows: Homogeneous Time-Resolved Fluorescence (HTRF) assay for the recombinant human Syk enzyme. Format: biochemical. To be noted: recombinant human GST-Syk 5 pM, ATP 25 μM, read-out: IC50. The procedure: Syk inhibition of the compounds of Formula (I) may be determined using the following assay protocol: Homogeneous Time-Resolved Fluorescence (HTRF) Assay for the Recombinant Human Syk Enzyme: A recombinant GST-hSyk fusion protein was used to measure potency of compounds to inhibit human Syk activity. […] Final volume of the reaction was 10 μL. Phosphorylation of the peptide was allowed to proceed for 45' at room temperature. To quench the reaction and detect the phosphorylated product, 2 nM of a Europium-anti-phosphotyrosine antibody (Perkin Elmer #AD0161) and 70 nM SA-APC (Perkin-Elmer #CR130-100) were added together in 15 mM Tris pH 7.5, 40 mM EDTA, 0.01% tween 20. Final volume of the quenching solution was 10 μL. The resulting HTRF signal was measured after 30 minutes on a EnVision (Perkin-Elmer) reader using a time-resolved fluorescence protocol.

Molecule `CSCCCOC(=O)[C@H]1CC[C@H]([C@@](C)(O)c2ccc(-c3cc(C)cc(Nc4cc(C(F)F)ccn4)n3)cn2)CC1` [Example 1-9, 3-(methylsulfanyl)propyl trans-4-[(1R)-1-(6-{[4-(difluoromethyl)pyridin-2-yl]amino}-4-methyl-2,3′-bipyridin-6′-yl)-1-hydroxyethyl] cyclohexanecarboxylate] yielded a solubility in data set [1] (25 °C, fassif, Solubility) of 43 µM (≈ 24.5 µg/mL). In addition, the IC50 in data set [2] was 27.7 nM.
`Cc1cc(Nc2cc(C(F)F)ccn2)nc(-c2ccc([C@](C)(O)[C@H]3CC[C@H](C(=O)OCc4nccn4C)CC3)nc2)c1` [Example 1-11, (1-methyl-1H-imidazol-2-yl)methyl trans-4-[(1R)-1-(6-{[4-(difluoromethyl)pyridin-2-yl]amino}-4-methyl-2,3′-bipyridin-6′-yl)-1-hydroxyethyl] cyclohexanecarboxylate] yielded a solubility in data set [1] (25 °C, fassif, Solubility) of 57 µM (≈ 32.9 µg/mL). In data set [2], the 50% inhibitory concentration (IC50) was 2.1 nM.
For the molecule `Cc1cc(Nc2cc(C(F)F)ccn2)nc(-c2ccc([C@](C)(O)[C@H]3CC[C@H](C(=O)OCCC(C)(C)O)CC3)nc2)c1` [Example 1-12, 3-hydroxy-3-methylbutyl trans-4-[(1R)-1-(6-{[4-(difluoromethyl)pyridin-2-yl]amino}-4-methyl-2,3′-bipyridin-6′-yl)-1-hydroxyethyl] cyclohexanecarboxylate], the solubility in data set [1] (FaSSIF, equilibrated overnight at 25° C., maximum solubility approximately 200 μM, read-out: Solubility) is 76 µM (≈ 43.2 µg/mL). In addition, the IC50 in data set [2] turned out to be 10 nM.
Molecule `Cc1cc(Nc2cc(C(F)F)ccn2)nc(-c2ccc([C@](C)(O)[C@H]3CC[C@H](C(=O)OCCCN(C)C)CC3)nc2)c1` [Example 1-13, 3-(dimethylamino)propyl trans-4-[(1R)-1-(6-{[4-(difluoromethyl)pyridin-2-yl]amino}-4-methyl-2,3′-bipyridin-6′-yl)-1-hydroxyethyl] cyclohexanecarboxylate] displayed a solubility in data set [1] (25 °C, fassif, Solubility) of 140 µM (≈ 79.5 µg/mL). In data set [2], the IC50 was 4.4 nM.
For the molecule `Cc1cc(Nc2cc(C(F)F)ccn2)nc(-c2ccc([C@](C)(O)[C@H]3CC[C@H](C(=O)OC[C@H]4COC(C)(C)O4)CC3)nc2)c1` [Example 1-14, [(4R)-2,2-dimethyl-1,3-dioxolan-4-yl]methyl trans-4-[(1R)-1-(6-{[4-(difluoromethyl)pyridin-2-yl]amino}-4-methyl-2,3′-bipyridin-6′-yl)-1-hydroxyethyl] cyclohexanecarboxylate], in data set [1] (25 °C, fassif, Solubility), the solubility was 109 µM (≈ 65 µg/mL). In data set [2], the IC50 amounted to 27.6 nM.
With `Cc1cc(Nc2cc(C(F)F)ccn2)nc(-c2ccc([C@](C)(O)[C@H]3CC[C@H](C(=O)OC[C@@H]4COC(C)(C)O4)CC3)nc2)c1` [Example 1-15, [(4S)-2,2-dimethyl-1,3-dioxolan-4-yl]methyl trans 4-[(1R)-1-(6-{[4-(difluoromethyl)pyridin-2-yl]amino}-4-methyl-2,3′-bipyridin-6′-yl)-1-hydroxyethyl] cyclohexanecarboxylate], the solubility in data set [1] (25 °C, fassif, Solubility) is 126 µM (≈ 75.2 µg/mL). Besides, the IC50 in data set [2] was determined as 18.5 nM.
Regarding `Cc1cc(Nc2cc(C(F)F)ccn2)nc(-c2ccc([C@](C)(O)[C@H]3CC[C@H](C(=O)OC[C@H](O)CO)CC3)nc2)c1` [Example 1-16, (2R)-2,3-dihydroxypropyl trans-4-[(1R)-1-(6-{[4-(difluoromethyl)pyridin-2-yl]amino}-4-methyl-2,3′-bipyridin-6′-yl)-1-hydroxyethyl] cyclohexanecarboxylate], the solubility in data set [1] (25 °C, fassif, Solubility) is 165 µM (≈ 91.8 µg/mL). Also, the IC50 in data set [2] worked out at 2.3 nM.
In data set [1] (25 °C, fassif, Solubility), `Cc1cc(Nc2cc(C(F)F)ccn2)nc(-c2ccc([C@](C)(O)[C@H]3CC[C@H](C(=O)OC4CCNCC4)CC3)nc2)c1` [Example 1-17, piperidin-4-yl trans-4-[(1R)-1-(6-{[4-(difluoromethyl)pyridin-2-yl]amino}-4-methyl-2,3′-bipyridin-6′-yl)-1-hydroxyethyl] cyclohexanecarboxylate] gave a solubility of 136 µM (≈ 76.9 µg/mL). The IC50 in data set [2] was 4.1 nM.
Regarding `Cc1cc(Nc2cc(C(F)F)ccn2)nc(-c2ccc([C@](C)(O)[C@H]3CC[C@H](C(=O)OC4CC5CCC(C4)N5)CC3)nc2)c1` (stereo partly drawn) [Example 1-18, 8-azabicyclo[3.2.1]oct-3-yl trans-4-[(1R)-1-(6-{[4-(difluoromethyl)pyridin-2-yl]amino}-4-methyl-2,3′-bipyridin-6′-yl)-1-hydroxyethyl] cyclohexanecarboxylate], the solubility in data set [1] (FaSSIF (fasted state simulated intestinal fluid), 25 °C, fassif, FaSSIF, equilibrated overnight at 25° C., maximum solubility approximately 200 μM, read-out: Solubility) was 109 µM (≈ 64.5 µg/mL). Moreover, the IC50 in data set [2] came out at 2.7 nM.
For the molecule `Cc1cc(Nc2cc(C(F)F)ccn2)nc(-c2ccc([C@](C)(O)[C@H]3CC[C@H](C(=O)O[C@H]4C[C@H](N)C4)CC3)nc2)c1` [Example 1-19, trans-3-aminocyclobutyl trans-4-[(1R)-1-(6-{[4-(difluoromethyl)pyridin-2-yl]amino}-4-methyl-2,3′-bipyridin-6′-yl)-1-hydroxyethyl] cyclohexanecarboxylate], in data set [1] (25 °C, fassif, Solubility), the concentration in solution (solubility) came to 98 µM (≈ 54.1 µg/mL). In addition, in data set [2], the IC50 came out at 4.4 nM.
As for `Cc1cc(Nc2cc(C(F)F)ccn2)nc(-c2ccc([C@](C)(O)[C@H]3CC[C@H](C(=O)OCC4CCOCC4)CC3)nc2)c1` [Example 1-20, tetrahydro-2H-pyran-4-ylmethyl trans-4-[(1R)-1-(6-{[4-(difluoromethyl)pyridin-2-yl]amino}-4-methyl-2,3′-bipyridin-6′-yl)-1-hydroxyethyl] cyclohexanecarboxylate], in data set [1] (25 °C, fassif, Solubility), the solubility was 47 µM (≈ 27.3 µg/mL). For the same molecule, the IC50 in data set [2] was 34.1 nM.
`CN[C@H]1CC[C@H](OC(=O)[C@H]2CC[C@H]([C@@](C)(O)c3ccc(-c4cc(C)cc(Nc5cc(C(F)F)ccn5)n4)cn3)CC2)CC1` [Example 1-24, trans-4-(methylamino)cyclohexyl trans-4-[(1R)-1-(6-{[4-(difluoromethyl)pyridin-2-yl]amino}-4-methyl-2,3′-bipyridin-6′-yl)-1-hydroxyethyl] cyclohexanecarboxylate]: in data set [1] (25 °C, fassif, Solubility), the solubility is 141 µM (≈ 83.7 µg/mL). Further, the IC50 in data set [2] was determined as 3.5 nM.
`Cc1cc(Nc2cc(C(F)F)ccn2)nc(-c2ccc([C@](C)(O)[C@H]3CC[C@H](C(=O)OCCCCCCN(C)C)CC3)nc2)c1` [Example 1-25, 6-(dimethylamino)hexyl trans-4-[(1R)-1-(6-{[4-(difluoromethyl)pyridin-2-yl]amino}-4-methyl-2,3′-bipyridin-6′-yl)-1-hydroxyethyl] cyclohexanecarboxylate]: in data set [1] (25 °C, fassif, Solubility), the solubility is 73 µM (≈ 44.5 µg/mL). Also, the IC50 in data set [2] was below 0.5 nM.
As for `CO[C@H]1O[C@H](COC(=O)[C@H]2CC[C@H]([C@@](C)(O)c3ccc(-c4cc(C)cc(Nc5cc(C(F)F)ccn5)n4)cn3)CC2)[C@@H](O)[C@H](O)[C@H]1O` [Example 1-26, methyl 6-O-({trans-4-[(1R)-1-(6-{[4-(difluoromethyl)pyridin-2-yl]amino}-4-methyl-2,3′-bipyridin-6′-yl)-1-hydroxyethyl]cyclohexyl}carbonyl)-alpha-D-glucopyranoside], the solubility in data set [1] (25 °C, fassif, Solubility) was 109 µM (≈ 71.8 µg/mL). For the same molecule, the IC50 in data set [2] came out at 4.1 nM.
For `Cc1cc(Nc2cc(C(F)F)ccn2)nc(-c2ccc([C@](C)(O)[C@H]3CC[C@H](C(=O)OCCC(=O)N(C)C)CC3)nc2)c1` [Example 1-27, 3-(dimethylamino)-3-oxopropyl trans-4-[(1R)-1-(6-{[4-(difluoromethyl)pyridin-2-yl]amino}-4-methyl-2,3′-bipyridin-6′-yl)-1-hydroxyethyl] cyclohexanecarboxylate], the concentration in solution in data set [1] (25 °C, fassif, Solubility) (solubility) came to 50 µM (≈ 29.1 µg/mL). Besides, the IC50 in data set [2] was found to be 1.8 nM.
